Measured values taken from publication PMC7924852, “The Emericellipsins A–E from an Alkalophilic Fungus Emericellopsis alkalina Show Potent Activity against Multidrug-Resistant Pathogenic Fungi” (Journal of Fungi, 2021).

Tests used:
A. terreus 3 K [1] = assay: Disc-diffusion antifungal assay; assay type: cell-based; conditions: 40 µg/disc
A. fumigatus 390 m [2] = assay: Disc-diffusion antifungal assay; assay type: cell-based, Aspergillus fumigatus; conditions: 40 µg/disc, pathogenic clinical isolate
A. niger ATCC 16404 = assay: Broth two-fold microdilution MIC (CLSI); assay type: cell-based, Aspergillus niger; conditions: A. niger ATCC 16404; RPMI 1640 pH 7.0, 35 °C, 48 h, no visible growth
A. terreus 497 [3] = assay: Disc-diffusion antifungal assay; assay type: cell-based; conditions: 40 µg/disc; A. terreus 497, pathogenic clinical isolate
A. fumigatus VKM F-37 [4] = assay: Disc-diffusion antifungal assay; assay type: cell-based, Aspergillus fumigatus; conditions: 40 µg/disc
[5] = tested on: isolates of Aspergillus spp.; assay: Broth microdilution MIC, ranges over mould isolates; assay type: cell-based; conditions: range over opportunistic and clinical isolates of Aspergillus spp. (Table 4)
A. fumigatus 390 m [6] = assay: Broth two-fold microdilution MIC (CLSI); assay type: cell-based, Aspergillus fumigatus; conditions: A. fumigatus 390 m clinical isolate; RPMI 1640 pH 7.0, 35 °C, 48 h
A. terreus 497 [7] = assay: Broth two-fold microdilution MIC (CLSI); assay type: cell-based; conditions: A. terreus 497 clinical isolate; RPMI 1640 pH 7.0, 35 °C, 48 h
[8] = tested on: Aspergillus niger ATCC 16404; assay: Disc-diffusion antifungal assay; assay type: cell-based; conditions: 40 µg/disc; A. niger ATCC 16404
A. fumigatus VKM F-37 [9] = assay: Broth two-fold microdilution MIC (CLSI); assay type: cell-based, Aspergillus fumigatus; conditions: A. fumigatus VKM F-37; RPMI 1640 pH 7.0, 35 °C, 48 h
A. terreus 3 K [10] = assay: Broth two-fold microdilution MIC (CLSI); assay type: cell-based; conditions: A. terreus 3 K; RPMI 1640 pH 7.0, 35 °C, 48 h
A. niger 1133 m [11] = assay: Broth two-fold microdilution MIC (CLSI); assay type: cell-based, Aspergillus niger; conditions: A. niger 1133 m clinical isolate; RPMI 1640 pH 7.0, 35 °C, 48 h
[12] = tested on: reference and clinical strains of Aspergillus; assay: Disc-diffusion antifungal assay, Aspergillus strains; assay type: cell-based; conditions: disc-diffusion, reference and clinical strains of Aspergillus
A. niger 1133 m [13] = assay: Disc-diffusion antifungal assay; assay type: cell-based, Aspergillus niger; conditions: 40 µg/disc, pathogenic clinical isolate

Substance	Zone of Inhibition (A. terreus 3 K [1]) [mm]	Zone of Inhibition (A. fumigatus 390 m [2]) [mm]	Minimal Inhibitory Concentration (MIC) (A. niger ATCC 16404)	Zone of Inhibition (A. terreus 497 [3]) [mm]	Zone of Inhibition (A. fumigatus VKM F-37 [4]) [mm]	MIC range [5] [µg/mL]	Minimal Inhibitory Concentration (MIC) (A. fumigatus 390 m [6])	Minimal Inhibitory Concentration (MIC) (A. terreus 497 [7]) [µg/mL]	Zone of Inhibition [8] [mm]	Minimal Inhibitory Concentration (MIC) (A. fumigatus VKM F-37 [9])	Minimal Inhibitory Concentration (MIC) (A. terreus 3 K [10]) [µg/mL]	Minimal Inhibitory Concentration (MIC) (A. niger 1133 m [11])	antifungal activity against Aspergillus strains (in words) [12]	Zone of Inhibition (A. niger 1133 m [13]) [mm]
Methyldecanoyl-MePro-AHMOD-Ala-Aib-Ile-Aib-βAla-Alaol-Glyol [EmiB, emericellipsin B, homologue of emericellipsin A, nonribosomal peptaibol]	0	0	8 µg/mL	0	0	4 to 8	8 µg/mL	4	10 ± 0.13	8 µg/mL	4	8 µg/mL	low activity only against A. niger strains	11 ± 0.170
Methyldecanoyl-MePro-AHMOD-Ala-Aib-Ile-Iva-βAla-Aib-Glyol [EmiE, emericellipsin E, homologue of emericellipsin A, nonribosomal peptaibol]	0	0	˃64 µg/mL	0	0	> 64	˃64 µg/mL	64	0	˃64 µg/mL	32	˃64 µg/mL	totally inactive	0
Methyldecanoyl-MePro-AHMOD-Ala-Iva-Ile-Iva-βAla-Alaol-Glyol [EmiD, emericellipsin D, homologue of emericellipsin A, nonribosomal peptaibol]	0	0	˃64 µg/mL	0	0	16 to 32	32 µg/mL	16	0	32 µg/mL	16	˃64 µg/mL	totally inactive	0
